In this test the test system is tracheal mucosal integrity. The experiment in a line: Tracheal mucosal integrity of intubated pre-term lambs (histology). The format is in vivo. The text has this: FIG. 2 compares histological images of tracheal tissue of a pre-term lamb intubated with an ETT not coated with a CSA-containing coating to tracheal tissue of a pre-term lamb intubated with an ETT coated with a CSA-containing coating.
Pre-term lambs were intubated using ETTs including a coating having CSA-131 and tracheal mucosal integrity of the lambs was compared to the tracheal mucosal integrity of a control group (intubated with uncoated ETTs). […] FIG. 2 illustrates the histological appearance of tracheas of the premature lambs that were intubated for three days. […] An area of denuded epithelium (arrowhead), and accumulation of white blood cells (arrow) are highlighted.

The text below walks through data of patent US20170080128A1, “NOVEL ENDOTRACHEAL TUBE FOR THE REDUCTION OF INTUBATION-RELATED COMPLICATION IN NEONATES AND BABIES” (Brigham Young University, priority 2015, published 2017).

As for `CCCCCCCCCCCCNCCC[C@@H](C)[C@H]1CC[C@H]2[C@@H]3[C@H](OCCCN)C[C@@H]4C[C@H](OCCCN)CC[C@]4(C)[C@H]3C[C@H](OCCCN)[C@]12C.Cl.Cl.Cl.Cl` [CSA-131], the “Histological appearance of trachea (FIG. 2, image (b))” value (ETT coated with a CSA-131 containing coating, intubated for three days) is “the epithelium is intact and the subjacent connective tissue region is not inflamed”. Moreover, the “Tracheal mucosal integrity compared to control group (uncoated ETTs)” value (ETTs including a coating having CSA-131) is given as “markedly improved mucosal integrity”.
